Entries after “also recorded” stand apart in the source; their conditions may differ. Some results are limits rather than exact numbers.

1 molecule from patent publication US12115176B2, “Methods and compositions relating to ClbP inhibition” (PRESIDENT AND FELLOWS OF HARVARD COLLEGE, priority 2021, dated 2024) can be followed below.

For one assay, the target named is purified ClbP (Escherichia coli, UniProt Q0P7K6). As to the kind of experiment: ClbP fluorescence activity assay (in vitro). In kind it is biochemical, Escherichia coli CFT073. The source says:
Constructs and protein purification for in vitro assays. ClbP constructs described in this publication were derived from a previously described plasmid containing the Escherichia coli CFT073 ClbP sequence (GenBank ID: NP_754344.1) inserted between the NdeI and XhoI restriction sites of pET29b (Addgene plasmid #48244).^14 All in vitro experiments used a construct bearing a C-terminal 10×His tag. This longer polyhistidine-tag was obtained by extension of the previously described 6×His tag through site-directed mutagenesis. All site-directed mutations were introduced using the Quikchange mutagenesis protocol (Stratagene) and confirmed by Sanger DNA sequencing of the whole open reading frame. Plasmids were transformed into chemically competent C41(DE3) (Lucigen) cells and proteins were isolated as previously described.^34
ClbP fluorescence activity assay (in vitro). Assays were performed in a buffer containing 50 mM Tris, 200 mM NaCl, 0.02% w/v DDM at pH 8.0 with 25 nM purified ClbP and 25 μM fluorogenic substrate in a total volume of 20 μL.^34 Purified ClbP was defrosted on ice from stocks stored at −80° C. Stocks were diluted to 50 nM enzyme in assay buffer in the wells of a black, flat-bottom 384-well plate and the appropriate inhibitor in DMSO or DMSO was added to a final concentration of 1%. For experiments testing different inhibitor concentrations, reactions were allowed to sit for 1 hour at room temperature. For experiments testing different preincubation times, the inhibitor in DMSO was added to each reaction X minutes before initiating the reaction, where X is the time indicated on the x-axis for that sample. For experiments to test whether hydrolysis of the boronic ester was rate-limiting, the inhibitor was added to buffer with no enzyme present and allowed to sit at room temperature for the time indicated before adding the enzyme. In all cases, reactions were initiated by the addition of 10 μL, of buffer containing the 50 μM fluorogenic substrate to achieve a final concentration of 25 μM and pipetting once with a multichannel pipette to mix. Reaction progress was monitored in a plate reader (Bio-Tek Synergy HTX multimode plate reader) with an excitation filter of 360/40 nm and an emission filter of 440/20 nm. “% activity” was determined based on the measured relative fluorescence units (RFU) of each condition after 1 hour using the following formula: […]

In another assay the test system is Escherichia coli NC101. The experiment in a line: Bacterial MIC assay (broth dilution). As to conditions: Escherichia coli, NC101, 15 h, read-out: MICs by compound. In kind it is cell-based. As to the method: MICs of compounds against different bacterial species were determined using a modified version of a broth microdilution protocol which has been previously reported.^1 Briefly, cultures of each species indicated were inoculated from frozen stocks in deoxygenated Wilkins-Chalgren Anaerobic Medium (WCAM) inside of an anerobic chamber with an 92.5% N2/5% CO2/2.5% H2 atmosphere. Cultures were grown for 24-48 hours in a 37° C. incubator at which point an OD600-measurement was taken for each culture and was accordingly diluted in fresh WCAM to an equivalent of OD600=0.01. Diluted cultures were then distributed into the wells of a clear, flat-bottom 384-well plate and the compound of interest was added to a final DMSO concentration of 2% (or DMSO only for positive controls). […] mineral oil (Millipore Sigma) was deposited on top of the cultures and plates were covered with a clear adhesive plate seal. Plates were incubated at 37° C. for 16 hours, at which point the OD600 of all wells was recorded on a SpectraMax M2 plate reader (Molecular Devices).

In a further assay the test system is Klebsiella oxytoca. The experiment in a line: Bacterial MIC assay (broth dilution). In kind it is cell-based. As to conditions: 15 h, read-out: MICs by compound.
The next assay deals with Lactobacillus rhamnosus. The experiment in a line: Bacterial MIC assay (broth dilution). In kind it is cell-based. Particulars: Lacticaseibacillus rhamnosus, 15 h, read-out: MICs by compound.
Assay [1] concerns Penicillin Binding Proteins (PBPs). The experiment in a line: Gel-based ABPP with BOCILLIN-FL probe. From the text:
To further explore the specificity of our inhibitors, another ABPP assay was used in which the broad-spectrum FP probe was replaced with a specific probe, BOCILLIN-FL, which targets penicillin binding proteins (PBPs) using a β-lactam warhead. This probe was chosen because of ClbP's homology to AmpC β-lactamases. Since PBPs are targeted by β-lactams, it was reasoned that the similarity of their binding pockets would mean a greater chance of identifying a secondary target among this family of enzymes.

The subject of assay [2] is FANCD2 in HeLa cell extracts. The experiment in a line: Western blot for FANCD2. In kind it is cell-based, human. As to conditions: 1 μM 3. How it is done: Western Blot for FANCD2. Infections were carried out as described above. For conditions which involved other small molecules, no bacteria were introduced during the infection and cells were treated with either 0.5 μg/mL mitomycin C (MMC) or 7.5 μg/mL cisplatin under the same conditions for 4 hours. 20 hours after infection, cells were lysed directly in the culture wells (Lysis buffer: 50 mM Tris, (pH 8.0), 150 mM NaCl, 1% Triton X-100, 0.5% Sodium deoxycholate, 0.05% sodium dodecylsulfate, 1 mM MgSO4, SIGMAFAST Protease inhibitor mix, 100 U/mL benzonase (Millipore-Sigma). Lysates were then spun down at 16,000×g to remove particulates and the supernatant was mixed 1:1 with 2X Laemmli sample buffer (Bio-Rad) containing 50 mg/mL dithiothreitol (DTT). Samples were then heated at 70° C. for 10 minutes and run on an SDS-PAGE gel (3-8% Tris-Acetate Novex gel, Invitrogen) at 150 V for 1.5 hours at 4° C. Bands were then transferred to PVDF membranes (100 V, 1 hour at 4° C.) and blocked with 10% skim milk powder in TBST buffer at 4° C. overnight. Blots were probed sequentially with either mouse anti-actin (1.5 μg/mL) or mouse anti-FANCD2 (0.1 μg/mL) primary antibodies (Thermo Fisher Scientific, Catalog #MA511869 and MA123347), followed by a peroxidase-conjugated goat anti-mouse secondary antibody (Jackson ImmunoResearch product 115-035-003, 0.08 μg/mL). Each probing step was conducted for 90 minutes at room temperature n 2.5% skim milk powder in TBST. Before imaging, blots were washed 3×15 minutes each in TBST […]. Blots were imaged using the SuperSignal™ West Pico PLUS Chemiluminescent Substrate (Thermo Fisher Scientific) kit following the manufacturer's instructions and imaged using an Azure Biosystems c300 imager.

Take `CC1(C)OB([C@@H](CC(N)=O)NC(=O)CCCc2ccccc2)OC1(C)C` [Compound 3]: the IC50 on purified ClbP turned out to be 28 nM. In addition, the “speed of reaching maximum potency, in words” value at purified ClbP (slow-binding inhibition assay, 100 nM) is given as “achieved their maximum potency faster than compound 4”. The MIC in the assay with Escherichia coli NC101, in the assay on Klebsiella oxytoca and in the assay on Lactobacillus rhamnosus was above 200 µM in each case. The “competitive binding to BOCILLIN-FL labeled PBPs” value in assay [1] (B. cereus ATCC14579 lysate) and in assay [1] (E. coli NC101 lysate) was “none of these PBPs showed any binding; also recorded: no competitive binding” each time. In addition, in assay [2] (HeLa cells exposed to pks+ E. coli (NC101)), the “FANCD2 ubiquitination in colibactin-exposed cells” value is “prevented this response; also recorded: prevents”. In assay [2] (HeLa cells), the “effect of 3 on FANCD2-Ub response to MMC or cisplatin” value is reported as “had no impact on the response to MMC or cisplatin”.
